Results: patent US11207369B2, “Compositions and methods for modulating ciliogenesis” (UNIVERSITY OF PITTSBURGH-OF THE COMMONWEALTH SYSTEM OF …, priority 2017, dated 2021)
Entries after “also recorded” stand apart in the source; their conditions may differ.

Key:
[1] = tested on: mouse tracheal epithelial cells; assay: Ex vivo reciliation of mouse tracheal epithelial cells in suspension culture (video-microscopy); assay type: cell-based
Description: All animal protocols were approved by the University of Pittsburgh Animal Care and Use Committee. Wild-type, C57B6, adult mice (6-8 weeks of age) were euthanized with inhalational CO2, anterior neck regions were washed with 70% ethanol, and a transverse incision was made across the neck at the mid-cervical level. […] The trachea was gently dissected from the underlying adherent esophagus and connective tissue, pulled out and transected proximally first from the larynx and then distally as far down as possible, close to the carina, and placed in a petri dish containing about 10 ml Leibovitz-15 solution (Gibco; 21083). Isolated tracheas were cleaned of adherent muscle tissue, blood vessels and fat under a dissecting microscope, then incised, splaying the trachea length-wise.
Twelve ml of Leibovitz-15 solution were placed in a 15 ml falcon tube, and 6 cleaned, incised tracheas were added to each tube. Pronase (Protease from Streptomyces griseus, Sigma, P5147) was added to a final concentration of 1.5 mg/ml (Stock solution, 150 mg/ml, 100×) and placed in 4° C. overnight with gentle shaking. After incubation, Pronase was neutralized with addition of fetal bovine serum to a final concentration of 10% (1.2 ml/tube). Tracheas and denuded epithelial cells were centrifuged at 1200 rpms for 6 minutes. Supernatant was aspirated, and trachea/cells were re-suspended in 12 ml Stationary media (500 ml DMEM/F12, 10 ml of Ultroser G, and 10 ml of 100× Antibiotics-Antimycotic). The cells/tracheas were pipetted up and down vigorously 12-20 times, and vortexed to re-suspend pelleted tracheas if necessary. Trachea/cells were centrifuged again, supernatants were aspirated, pellets were re-suspended in 6 ml of stationary medium, and then everything was transferred to a Primaria plate (Corning, 353803) or a regular cell culture plate (Corning, 353003), and incubated at 37° C./5% CO2 for 6 hours. This was performed to plate out fibroblasts, thereby minimizing contamination of tracheal epithelial cells with fibroblasts. After incubation, non-adherent cells were collected by lightly washing the plates with stationary media present in the plates. Cells were pelleted, supernatant aspirated, cells re-suspended in 12 ml of stationary medium and added to a 6-well plate (2 ml/well) coated with rat tail collagen.
Tracheal epithelial cells were obtained from mice and processed for stationary culture as detailed above. The tracheal epithelial cells were placed onto rat-tail collagen coated wells and then incubated at 37° C./5% CO2 for 36-48 hrs. Over the course of about 48 hours, the cells seeded onto the collagen lost their cilia and underwent proliferative growth, expanding in numbers. […]

[2] = tested on: human nasal epithelial cells; assay: Ex vivo reciliation of human nasal epithelial cells in suspension culture (video-microscopy); assay type: cell-based; conditions: 2 nM DAPT vs regular media
Method: Cells were immediately placed into 5 ml Leibovitz-15 medium prior to processing for stationary culture.
These cells were spun down, the supernatant was aspirated, cells were resuspended in 6 ml of stationary medium, and then plated onto 3 wells of a 6-well rat tail collagen coated plate. The media was changed 48-72 hours post plating and fed every 2 days until confluence was reached. Following confluence, the treatment of mouse tracheal epithelial cells and human nasal epithelial cells was identical e.g., placement into suspension culture, video microscopy, etc. siRNA knockdown was only performed in mouse tracheal tissue due to the paucity of human nasal epithelial cells.
Once confluence was reached, typically occurring between about 7 to 10 days, the stationary media was aspirated, and collagen was digested with 1 ml of Collagenase 4 (200 IU/ml, Worthington, LS004210) for 75-90 mins at 37° C./5% CO2. After incubation, collagenase was neutralized using 2 ml of Suspension media (500 ml DMEN/F12, 50 ml NuSerum, 10 ml 100× Antibiotics-Antimycotic). Cells adherent to the bottom of the plate were gently scrapped off with a cell scraper (Fisherbrand, 08-100-241). […]
Reciliation was observed by about days 7 to 9 with high-speed video-microscopy (200 fps) with a 60× oil-immersion lens (FIG. 2A). […] The outlined total surface and ciliated surface alone was quantified. Extent of ciliation was calculated by dividing the length of ciliated surface by the length of the entire surface available for ciliation, and converted to a percentage.
To measure cilia length in reciliated nasal tissue, each recording was processed with a custom script written for Fiji, an open-source image analysis software (Schindelin, et al., Nat. Methods, 2012, 9:676-682). This script used the Temporal Median filter to segment patches of cilia based on movement, and the Thickness tool in the BoneJ analysis toolkit (Doube, et al., Bone, 2010, 47:1076-1079) measured average cilia length. Ciliary beat frequency was measured in cilia beats per second (Hertz).] […]

[3] = tested on: Hes1, Hes5, Hey1, Notch1, Psen1, Hif1α, nNOS, iNOS, eNOS; assay: qPCR of gene expression in mouse tracheal epithelial cells during ciliogenesis; assay type: cell-based; conditions: 2 nM DAPT vs untreated, varying time points in suspension culture, most prominently day 5
Method: FIGS. 7(A-I) are graphs showing quantitative […] (qPCR) of gene expression in mouse tracheal epithelial cells during ciliogenesis. Cells were grown to confluence in stationary culture, treated with collagenase, then placed into suspension culture having 0 nM or 2 nM DAPT, which marked the “baseline” time point. At the indicated times, qPCR experiments were performed to detect gene expression of Hes1 (FIG. 7A), Hes5 (FIG. 7B), Hey1 (FIG. 7C), Psen1 (FIG. 7D), Hif1α (FIG. 7E), Notch1 (FIG. 7F), nNOS (FIG. 7G), iNOS (FIG. 7H), and eNOS (FIG. 7I).
Indeed, expression of multiple genes such as Hes1, Hes5, Hey1, Notch1, Psen1, Hif1α, nNOS, iNOS, and eNOS was altered at varying time points during ciliogenesis in suspension culture containing 2 nM DAPT, as compared to untreated (no DAPT) controls (FIGS. 7A-[…]). […] This effect was most marked for the three isoforms of nitric oxide synthase (NOS).

airway epithelial cells = assay: Inhalational administration to subjects with COPD, video-microscopy of airway epithelial cells; assay type: in vivo, human; conditions: approx. 1 mg/kg inhaled once per day for seven days
Method: Ten subjects are diagnosed with Chronic Obstructive Pulmonary Disease (COPD). Each subject provides informed consent regarding providing epithelial cell samples and to receiving a blinded treatment of either DAPT or a control placebo. […] The epithelial cells are placed into suitable medium such as Leibovitz-15 medium. Thereafter, cell samples are evaluated for percentage ciliation, cilia length, and/or cilia beat frequency by video-microscopy, and the results are recorded. Video-microscopy confirms each subject has epithelial cells which are reduced in cilia number, cilia length, and/or cilia beat frequency compared to averages or standards present in the medical literature.
DAPT is inhalationally administered to five of the subjects via a nebulizer or an inhaler (hereinafter, “DAPT-treated subjects”). […]
(§1) The epithelial cells are placed into suitable medium such as Leibovitz-15 medium. Thereafter, cell samples are evaluated for percentage ciliation, cilia length, and/or cilia beat frequency by video-microscopy, and the results are recorded. Video-microscopy confirms each of the five DAPT-treated subjects has epithelial cells which are increased in cilia number, cilia length, and/or cilia beat frequency as compared to both 1) the epithelial cells of placebo-treated subjects, and 2) the pre-treatment measurements recorded for epithelial cells of each respective DAPT-treated subject. […]

ependymal cells = assay: Intrathecal administration to subjects with hydrocephalus, video-microscopy of ependymal cells; assay type: in vivo, human; conditions: approx. 1 mg/kg intrathecal once
Method: Ten subjects are diagnosed with hydrocephalus. Each subject provides informed consent regarding providing epithelial cell samples and to receiving a blinded treatment of either DAPT or a control placebo. Intrathecal biopsy is used to obtain ependymal cells from the cerebrospinal fluid of each subject. The ependymal cells are placed into suitable medium such as Leibovitz-15 medium. Thereafter, cell samples are evaluated for percentage ciliation, cilia length, and/or cilia beat frequency by video-microscopy, and the results are recorded. Video-microscopy confirms each subject has ependymal cells which are reduced in cilia number, cilia length, and/or cilia beat frequency compared to averages or standards present in the medical literature. […]
as §1, with “On day eight post-injection, ependymal” for “The epithelial”, “obtained from the cerebrospinal fluid of each subject by intrathecal biopsy. […]” for “placed into suitable medium such as Leibovitz-15 medium.”, “ependymal” for “epithelial”

[4] = 2 nM DAPT vs untreated, 8 days suspension culture
[5] = 12 subjects with congenital heart defects
[6] = day eight, vs placebo and pre-treatment

Structure (SMILES): C[C@H](NC(=O)Cc1cc(F)cc(F)c1)C(=O)N[C@H](C(=O)OC(C)(C)C)c1ccccc1 [DAPT, N—[N-(3,5-Difluorophenacetyl)-L-alanyl]-S-phenylglycine t-butyl ester]
- cilia beat frequency [1, 4]: significantly increased
- cilia length [1, 4]: significantly increased
- increased ciliogenesis over baseline (percent ciliation) ([1]; 2 nM DAPT, 8 days suspension culture): ~3 fold
- toxicity to cells (cell death, very few if any ciliated cells) ([1]; 2 μM DAPT or more, DMSO volume constant): toxic to cells
- percentage reciliation (percent ciliation) ([2]; 12 paired samples from subjects with congenital heart defects): significantly greater; also recorded: significant increases
- cilia beat frequency [2, 5]: significantly increased; also recorded: significant increases
- cilia length [2, 5]: significantly increased; also recorded: significant increases
- expression of Hes1, Hes5, Hey1, Notch1, Psen1, Hif1α, nNOS, iNOS and eNOS [3]: altered
- cilia number, cilia length, and/or cilia beat frequency of epithelial cells (airway epithelial cells; [6]): increased
- symptoms of COPD (e.g., coughing) (airway epithelial cells; some subjects): ameliorated
- cilia number, cilia length, and/or cilia beat frequency of ependymal cells (ependymal cells; [6]): increased
- symptoms of hydrocephalus (e.g., headache) (ependymal cells; some subjects): ameliorated
